The text below walks through data of patent US9815819B2, “Complement pathway modulators and uses thereof” (priority 2012, dated 2017).

pIC50: −log10 of the molar value.

For one test, the target named is Recombinant human factor D (Homo sapiens (Human), UniProt P00746). The experiment in a line: Human Complement Factor D Assay: Method 1. It counts as biochemical. The settings on record: Factor D inhibition, Method 1: 10 nM factor D, 1 hour incubation with compound at room temperature, substrate Z-Lys-thiobenzyl, fluorescence readout; read-out: IC50.
Chain of Recombinant human factor D (P00746 26-253): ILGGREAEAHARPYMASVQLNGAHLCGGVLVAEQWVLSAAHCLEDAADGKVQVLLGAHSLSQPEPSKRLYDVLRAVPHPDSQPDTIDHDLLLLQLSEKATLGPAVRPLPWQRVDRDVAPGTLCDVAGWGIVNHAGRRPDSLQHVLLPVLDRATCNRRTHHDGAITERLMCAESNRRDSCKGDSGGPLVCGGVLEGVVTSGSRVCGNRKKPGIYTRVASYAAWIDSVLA
Experimental: Recombinant human factor D (expressed in E. coli and purified using standard methods) at 10 nM concentration is incubated with test compound at various concentrations for 1 hour at room temperature in 0.1 M Hepes buffer, pH 7.5, containing 1 mM MgCl2, 1 M NaCl and 0.05% CHAPS. […] IC50 values are calculated from percentage of inhibition of complement factor D-activity as a function of test compound concentration.
With `NC(=O)c1nn(CC(=O)N2[C@@H]3C[C@@H]3C[C@H]2C(=O)NC2CC2(F)c2ccccc2F)c2ccccc12` (single isomer, unassigned) [Example 50], the pIC50 – broadly, −log10 of the IC50, conventionally taken in molar units – is 5.41.

`NC(=O)c1nn(CC(=O)N2[C@@H]3C[C@@H]3C[C@H]2C(=O)NC2CC2(F)c2ccccc2F)c2ccccc12` (single isomer, unassigned) [Example 51]: the pIC50 is 6.00. Same read-out and setting: with `NC(=O)c1nn(CC(=O)N2[C@@H]3C[C@@H]3C[C@H]2C(=O)NC2CC2(F)c2ccccc2F)c2ccccc12` (single isomer, unassigned) [Example 52] the figure was 6.44; with `NC(=O)c1nn(CC(=O)N2[C@@H]3C[C@@H]3C[C@H]2C(=O)NC2CC2(F)c2ccccc2F)c2ccccc12` (single isomer, unassigned) [Example 53], 7.44; with `NC(=O)c1nn(CC(=O)N2[C@@H]3C[C@@H]3C[C@H]2C(=O)NC2CC2c2ccc(F)cc2F)c2ccccc12` (single isomer, unassigned) [Example 74], 5.42. On the same count and under the same terms, under `NC(=O)c1nn(CC(=O)N2[C@@H]3C[C@@H]3C[C@H]2C(=O)NC2CC2c2ccc(F)cc2F)c2ccccc12` (single isomer, unassigned) [Example 75] stands 5.11. Same read-out and setting: with `NC(=O)c1nn(CC(=O)N2[C@@H]3C[C@@H]3C[C@H]2C(=O)NC2CC2c2ccc(F)cc2F)c2ccccc12` (single isomer, unassigned) [Example 76] the figure was 7.44; with `NC(=O)c1nn(CC(=O)N2[C@@H]3C[C@@H]3C[C@H]2C(=O)NC2CC2c2ccc(F)cc2F)c2ccccc12` (single isomer, unassigned) [Example 77], 6.19.

As for `CC(=O)c1nn(CC(=O)N2[C@@H]3C[C@@H]3C[C@H]2C(=O)N[C@H]2C[C@@H]2c2ccccc2)c2ccccc12` [Example 1, (1R,3S,5R)-2-[2-(3-Acetyl-indazol-1-yl)-acetyl]-2-aza-bicyclo[3.1.0]hexane-3-carboxylic acid((1S,2R)-2-phenyl-cyclopropyl)-amide], the pIC50 was 6.41. The same measure, in the same setting: with `CC(=O)c1nn(CC(=O)N2[C@@H]3C[C@@H]3C[C@H]2C(=O)N[C@@H]2C[C@H]2c2ccccc2)c2ccccc12` [Example 2, (1R,3S,5R)-2-[2-(3-Acetyl-indazol-1-yl)-acetyl]-2-aza-bicyclo[3.1.0] hexane-3-carboxylic acid ((1R,2S)-2-phenyl-cyclopropyl)-amide] the figure was 7.54; with `CC(=O)c1nn(CC(=O)N2[C@@H]3C[C@@H]3C[C@H]2C(=O)N[C@@H]2C[C@H]2c2ccccc2)c2ccncc12` [Example 3, (1R,3S,5R)-2-[2-(3-Acetyl-pyrazolo[4,3-c]pyridin-1-yl)-acetyl]-2-aza-bicyclo[3.1.0] hexane-3-carboxylic acid ((1R,2S)-2-phenyl-cyclopropyl)-amide], 6.83. Still for that read-out and setting: with `CC(=O)c1nn(CC(=O)N2[C@@H]3C[C@@H]3C[C@H]2C(=O)N[C@H]2C[C@@H]2c2ccccc2)c2cnccc12` [Example 4, (1R,3S,5R)-2-[2-(3-Acetyl-pyrazolo[3,4-c]pyridin-1-yl)-acetyl]-2-aza-bicyclo[3.1.0] hexane-3-carboxylic acid ((1S,2R)-2-phenyl-cyclopropyl)-amide] the figure was 6.15.

Staying with this test, now noted: IC50 (μM), Factor D inhibition, Method 1: 10 nM factor D, 1 hour incubation with compound at room temperature, substrate Z-Lys-thiobenzyl, fluorescence readout.
Turning to `NC(=O)c1nn(CC(=O)N2[C@@H]3C[C@@H]3C[C@H]2C(=O)NC2CCCC(c3ccccc3)C2)c2ccccc12` (single isomer, unassigned) [Example 78], the concentration for half-maximal inhibition (IC50) (in general, the concentration that gives 50% inhibition) is 2 µM.

Regarding `NC(=O)c1nn(CC(=O)N2[C@@H]3C[C@@H]3C[C@H]2C(=O)NC2CCCC(c3ccccc3)C2)c2ccccc12` (single isomer, unassigned) [Example 79], the IC50 amounted to 0.114 µM. The same measure, in the same setting: with `NC(=O)c1nn(CC(=O)N2[C@@H]3C[C@@H]3C[C@H]2C(=O)NC2CCCC(c3ccccc3)C2)c2ccccc12` (single isomer, unassigned) [Example 80] the figure was 0.475 µM. On the same count and under the same terms, with `NC(=O)c1nn(CC(=O)N2[C@@H]3C[C@@H]3C[C@H]2C(=O)NC2CCCC(c3ccccc3)C2)c2ccccc12` (single isomer, unassigned) [Example 81] the figure was 5.65 µM.
